Reference: the supplement of paper PMC7021759
± gives the standard deviation of the averaged measurements.

System: SK-N-MM (SKNMM-MYCN, doxycycline-inducible MYCN)
Experiment: area under dose-response curve (CellTiter-Glo viability normalised to plate controls) (AUC (arbitrary units)); higher = more loss of viability; extreme values may be limits of the assay
In short: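 In 96-well plates, SK-N-MM cells with doxycycline-inducible MYCN (1250 cells/100 μL) were given medium with or without doxycycline about 24 h after plating. Compound dilution series of 10 points at 1:3 were added two days later and again on day 4, and CellTiter-Glo luminescence was recorded 3 or 8 days after drugging. The area under the dose-response curve was derived from log2 signals normalised to the positive and negative controls on each plate.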

[1] = MYCN induction (doxycycline): +doxycycline (MYCN induced), time after drugging: 3 days
[2] = MYCN induction (doxycycline): +doxycycline (MYCN induced), time after drugging: 8 days
[3] = MYCN induction (doxycycline): no doxycycline (MYCN not induced), time after drugging: 3 days
[4] = MYCN induction (doxycycline): no doxycycline (MYCN not induced), time after drugging: 8 days

C[C@@H]1O[C@@H](O[C@H]2C[C@@H](O)[C@]3(CO)[C@H]4[C@H](O)C[C@]5(C)[C@@H](C6=CC(=O)OC6)CC[C@]5(O)[C@@H]4CC[C@]3(O)C2)[C@H](O)[C@H](O)[C@H]1O [OUABAIN]
area under dose-response curve [1]: 178
area under dose-response curve [2]: 280
area under dose-response curve [3]: 173
area under dose-response curve [4]: 275

Oc1ccc(C2=Cc3ccc(O)cc3OC2)cc1 [IDRONOXIL]
area under dose-response curve [1]: 38.3
area under dose-response curve [2]: 77.4
area under dose-response curve [3]: 17.5
area under dose-response curve [4]: 46.3

Nc1nc2[nH]cnc2c(=S)[nH]1 [THIOGUANINE]
area under dose-response curve [1]: 26.6
area under dose-response curve [2]: 54.3
area under dose-response curve [3]: 10.2
area under dose-response curve [4]: 21.2

O=C(Nc1ccc(Nc2nccc(Nc3cc(C4CCCC4)[nH]n3)n2)cc1)Nc1cccc(C(F)(F)F)c1 [CD532]
area under dose-response curve [1]: 175
area under dose-response curve [2]: 211
area under dose-response curve [3]: 156
area under dose-response curve [4]: 191

COc1cc(Nc2ncc3c(n2)-c2ccc(Cl)cc2C(c2c(F)cccc2OC)=NC3)ccc1C(=O)O [ALISERTIB]
area under dose-response curve [1]: 51.1 ± 1.1
area under dose-response curve [2]: 126 ± 21
area under dose-response curve [3]: 15.2 ± 0.59
area under dose-response curve [4]: 69.4 ± 30

COc1cc(CCc2cc(NC(=O)c3ccc(N4CC(C)NC(C)C4)cc3)n[nH]2)cc(OC)c1 (stereo not drawn) [AZD4547]
area under dose-response curve [1]: 2.86
area under dose-response curve [2]: 3.53
area under dose-response curve [3]: 2.67
area under dose-response curve [4]: 3.59

CC1=C(/C=C/C(C)=C/C=C/C(C)=C/C(=O)O)C(C)(C)CCC1 [TRETINON]
area under dose-response curve [2]: 0.434
area under dose-response curve [3]: 1.4
area under dose-response curve [4]: 0

S=c1[nH]cnc2nc[nH]c12 [MERCAPTOPURINE]
area under dose-response curve [1]: 8.11
area under dose-response curve [2]: 21.7
area under dose-response curve [3]: 12.1
area under dose-response curve [4]: 13.1

CC1(COc2ccc3c(c2)ncn3-c2ccc3cccc(N4CCC(N)CC4)c3n2)COC1 [CRENOLANIB]
area under dose-response curve [1]: 0
area under dose-response curve [2]: 136
area under dose-response curve [3]: 0
area under dose-response curve [4]: 146

CCN(CC)Cc1ccc2cc(COC(=O)Nc3ccc(C(=O)NO)cc3)ccc2c1 [GIVINOSTAT]
area under dose-response curve [1]: 132
area under dose-response curve [2]: 283
area under dose-response curve [3]: 96.7
area under dose-response curve [4]: 226

CO[C@H]1C(=O)[C@]2(C)[C@@H](OC)C[C@H]3OC[C@@]3(OC(C)=O)[C@H]2[C@H](OC(=O)c2ccccc2)[C@]2(O)C[C@H](OC(=O)[C@H](O)[C@@H](NC(=O)OC(C)(C)C)c3ccccc3)C(C)=C1C2(C)C [CABAZITAXEL]
area under dose-response curve [1]: 195
area under dose-response curve [2]: 350
area under dose-response curve [3]: 140
area under dose-response curve [4]: 225

CC(C)NC[C@@H](C(=O)N1CCN(c2ncnc3c2[C@H](C)C[C@H]3O)CC1)c1ccc(Cl)cc1 [IPATASERTIB]
area under dose-response curve [1]: 0
area under dose-response curve [2]: 0
area under dose-response curve [3]: 10.4
area under dose-response curve [4]: 0.0606

CC(C)c1cc(-c2n[nH]c(=O)n2-c2ccc3c(ccn3C)c2)c(O)cc1O [GANETESPIB]
area under dose-response curve [1]: 169
area under dose-response curve [2]: 378
area under dose-response curve [3]: 202
area under dose-response curve [4]: 398

C[C@H]1[C@@H](O)O[C@@H]2O[C@@]3(C)CC[C@H]4[C@H](C)CC[C@@H]1[C@@]24OO3 [DIHYDROARTEMISININ]
area under dose-response curve [1]: 62.1
area under dose-response curve [2]: 116
area under dose-response curve [3]: 37
area under dose-response curve [4]: 73.1

CC(=O)c1ccc2c(c1)c1cc(C(C)=O)ccc1n2CCNC(C)C [CBL-0137]
area under dose-response curve [1]: 116
area under dose-response curve [2]: 176
area under dose-response curve [3]: 94.2
area under dose-response curve [4]: 172

C1=N/C2=N/c3ccc(OCCN4CCCC4)c(c3)COC/C=C/COCc3cccc(c3)C(=C1)N2 [PACRITINIB]
area under dose-response curve [1]: 170
area under dose-response curve [2]: 176
area under dose-response curve [3]: 165
area under dose-response curve [4]: 198

CCN1CCN(Cc2ccc(Nc3ncc(F)c(-c4cc(F)c5nc(C)n(C(C)C)c5c4)n3)nc2)CC1 [ABEMACICLIB]
area under dose-response curve [4]: 14.4

Cc1c(N)nc([C@H](CC(N)=O)NC[C@H](N)C(N)=O)nc1C(=O)N[C@H](C(=O)N[C@H](C)[C@@H](O)[C@H](C)C(=O)N[C@H](C(=O)NCCc1nc(-c2nc(C(=O)NCCC[S+](C)C)cs2)cs1)[C@@H](C)O)[C@@H](OC1OC(CO)C(O)C(O)C1OC1OC(CO)C(O)C(OC(N)=O)C1O)c1cnc[nH]1 (stereo partly drawn) [BLEOMYCIN]
area under dose-response curve [1]: 0
area under dose-response curve [2]: 0
area under dose-response curve [3]: 0
area under dose-response curve [4]: 0

CN[C@H]1CN(c2ccc3c(=O)c(C(=O)O)cn(-c4nccs4)c3n2)C[C@@H]1OC [VOSAROXIN]
area under dose-response curve [1]: 39.3
area under dose-response curve [2]: 92.8
area under dose-response curve [3]: 16.4
area under dose-response curve [4]: 48.5

COc1ncc(-c2ccc3nccc(-c4ccnnc4)c3c2)cc1NS(=O)(=O)c1ccc(F)cc1F [OMIPALISIB]
area under dose-response curve [1]: 105
area under dose-response curve [2]: 183
area under dose-response curve [3]: 86.2
area under dose-response curve [4]: 160

CC(C)(C#N)c1cc(Cn2cncn2)cc(C(C)(C)C#N)c1 [ANASTROZOLE]
area under dose-response curve [1]: 4.86
area under dose-response curve [2]: 89.8
area under dose-response curve [3]: 0
area under dose-response curve [4]: 77.4

O=c1[nH]c(=O)n([C@H]2C[C@H](O)[C@@H](CO)O2)cc1F [FLOXURIDINE]
area under dose-response curve [1]: 23.4
area under dose-response curve [2]: 165
area under dose-response curve [3]: 11.8
area under dose-response curve [4]: 66.3

Cc1nc(=O)c2cc(CN(C)c3ccc(C(=O)N[C@@H](CCC(=O)O)C(=O)O)s3)ccc2[nH]1 [RALTITREXED]
area under dose-response curve [1]: 22.3
area under dose-response curve [2]: 166
area under dose-response curve [3]: 6.42
area under dose-response curve [4]: 63.1

CC[C@H](Nc1nc(NCc2cnc(C)cc2C)c2ncn(C(C)C)c2n1)[C@@H](C)O [CYC-065]
area under dose-response curve [1]: 66.2
area under dose-response curve [2]: 165
area under dose-response curve [3]: 45.7
area under dose-response curve [4]: 160

O=c1[nH]c(=O)n([C@H]2C[C@H](O)[C@@H](CO)O2)cc1/C=C/Br [BRIVUDINE]
area under dose-response curve [1]: 0.716
area under dose-response curve [2]: 11.1
area under dose-response curve [3]: 0
area under dose-response curve [4]: 0.883

CS(=O)(=O)CCNCc1ccc(-c2ccc3ncnc(Nc4ccc(OCc5cccc(F)c5)c(Cl)c4)c3c2)o1 [LAPATINIB]
area under dose-response curve [1]: 0
area under dose-response curve [2]: 0
area under dose-response curve [3]: 0
area under dose-response curve [4]: 0

CCOC(=O)c1ccc(C#Cc2ccc3c(c2)C(C)(C)CCS3)nc1 [TAZAROTENE]
area under dose-response curve [1]: 3.59
area under dose-response curve [2]: 9.49
area under dose-response curve [4]: 0.284

CN(C)C1CCN(C(=O)c2ccc(NC(=O)Nc3ccc(-c4nc(N5CCOCC5)nc(N5CCOCC5)n4)cc3)cc2)CC1 [GEDATOLISIB]
area under dose-response curve [1]: 39.4
area under dose-response curve [2]: 0
area under dose-response curve [3]: 27.4
area under dose-response curve [4]: 47.7

COc1cc(NCc2ccc3nc(N)nc(N)c3c2C)cc(OC)c1OC [TRIMETREXATE]
area under dose-response curve [1]: 27.5
area under dose-response curve [2]: 140
area under dose-response curve [3]: 18.8
area under dose-response curve [4]: 47.1

CC(=O)O[C@@H](C)/C=C\C(=O)N[C@@H]1C[C@H](C)[C@H](C/C=C(C)/C=C/[C@H]2O[C@](C)(O)C[C@@]3(CO3)[C@@H]2O)O[C@@H]1C
area under dose-response curve [1]: 13.5
area under dose-response curve [2]: 33.2
area under dose-response curve [4]: 28.1

CC[C@@]1(O)C(=O)OCc2c1cc1n(c2=O)Cc2cc3c(CN(C)C)c(O)ccc3nc2-1 [TOPOTECAN]
area under dose-response curve [1]: 139
area under dose-response curve [2]: 216
area under dose-response curve [3]: 68.5
area under dose-response curve [4]: 105

C=C1C[C@@H]2CC[C@@]34C[C@H]5O[C@H]6[C@@H](O3)[C@H]3O[C@H](CC[C@@H]3O[C@H]6[C@H]5O4)CC(=O)C[C@@H]3[C@@H](OC)[C@@H](C[C@H](O)CN)O[C@H]3C[C@H]3O[C@@H](CC[C@@H]1O2)C[C@@H](C)C3=C [ERIBULIN]
area under dose-response curve [1]: 0
area under dose-response curve [2]: 0.398
area under dose-response curve [3]: 0
area under dose-response curve [4]: 52.7

OC[C@H]1O[C@@H](n2cnc3c2N=CNC[C@H]3O)C[C@@H]1O [PENTOSTATIN]
area under dose-response curve [1]: 0
area under dose-response curve [2]: 0
area under dose-response curve [3]: 0

C=C(c1ccc(C(=O)O)cc1)c1cc2c(cc1C)C(C)(C)CCC2(C)C [BEXAROTENE]
area under dose-response curve [1]: 4.22 ± 5.2
area under dose-response curve [3]: 11.9
area under dose-response curve [4]: 0

CN(C)CCCNC(=O)c1ccc(-c2cc(O)c3ncccc3c2)cc1 [ML324]
area under dose-response curve [1]: 16.5
area under dose-response curve [2]: 109
area under dose-response curve [3]: 4.85
area under dose-response curve [4]: 68.6

Nc1nc(=O)n([C@H]2C[C@H](O)[C@@H](CO)O2)cc1F [5-FLUORODEOXYCYTIDINE]
area under dose-response curve [1]: 23.7
area under dose-response curve [2]: 184
area under dose-response curve [3]: 9.38
area under dose-response curve [4]: 58.5

CC1(C)CCC(c2ccc(Cl)cc2)=C(CN2CCN(c3ccc(C(=O)NS(=O)(=O)c4ccc(N[C@H](CCN5CCOCC5)CSc5ccccc5)c(S(=O)(=O)C(F)(F)F)c4)cc3)CC2)C1 [NAVITOCLAX]
area under dose-response curve [1]: 8.7
area under dose-response curve [2]: 3.92
area under dose-response curve [3]: 0
area under dose-response curve [4]: 0.362

O=P1(NCCCl)OCCCN1CCCl (stereo not drawn) [IFOSFAMIDE]
area under dose-response curve [1]: 0
area under dose-response curve [2]: 0
area under dose-response curve [3]: 0
